Experimental findings from ChEMBL document CHEMBL1629473, “Convenient synthesis and biological profile of 5-amino-substituted 1,2,4-oxadiazole derivatives” (Eur J Med Chem, 2010) are described below.

The test system of one data set is Rattus norvegicus. Put plainly: Antiinflammatory activity in Fisher 344 rat assessed as inhibition of carrageenan-induced paw edema at 0.01 mmol/kg, ip measured 3.5 hrs after carrageenan challenge relative to control. It counts as functional. More on the design: scale not given: the % may be the effect or the level left.
The target of data set [1] is Lipoxygenase (Glycine max) (UniProt Q39829). Description: Inhibition of soybean lipoxygenase at 100 uM by UV spectrophotometry. More on the design: scale not given: the % may be the effect or the level left.
In data set [2] the test system is Radical scavenging activity. Description: Antioxidant activity assessed as DPPH free radical scavenging activity at 100 uM after 60 mins. The format is functional.
The test system of data set [3] is Radical scavenging activity. Description: Antioxidant activity assessed as DPPH free radical scavenging activity at 100 uM after 20 mins. It counts as functional. In general terms: Loss of DPPH colour is used to gauge radical scavenging.
Data set [4] is described as follows: Induction of NO release in phosphate buffer pH 7.4 containing 5 mM L-cysteine assessed as nitrite level at 100 uM after 60 mins by Griess assay. Particulars: pH 7.4, 1 h. It counts as physicochemical.
Data set [5] in a line: Induction of NO release in phosphate buffer pH 7.4 containing 1 mM L-cysteine assessed as nitrite level at 100 uM after 60 mins by Griess assay. It counts as physicochemical. The note with it: pH 7.4, 1 h.
Data set [6] in a line: Induction of NO release in phosphate buffer pH 7.4 containing 0.5 mM L-cysteine assessed as nitrite level at 100 uM after 60 mins by Griess assay. The note with it: pH 7.4, 1 h. The format is physicochemical. (The Griess reaction detects nitrite, a stable product of nitric oxide.)
The nature of data set [7]: Induction of NO release in phosphate buffer pH 7.4 containing 0.5 mM thiophenol assessed as nitrite level at 100 uM after 60 mins by Griess assay. The format is physicochemical. Particulars: pH 7.4, 1 h.
The test system of data set [8] is Radical scavenging activity. Put plainly: Antioxidant activity assessed as DPPH free radical scavenging activity at 50 uM after 20 mins. The format is functional.
Data set [9] deals with Radical scavenging activity. Put plainly: Antioxidant activity assessed as DPPH free radical scavenging activity at 50 uM after 60 mins. It counts as functional.

The structures appear in SMILES notation. Bounds are passed on as bounds.

As to `N/C(Cc1ccc(Cl)cc1)=N\O`, the results for the Activity (in the data set with Rattus norvegicus; in data set [1]; in data set [2]) were 47%, 19% and 16%, respectively.

As to `CCCc1noc(NC(C)C)n1`, the Activity in [3] and in data set [2] was 7% in each case.

As to `N/C(=N\O)c1cccc([N+](=O)[O-])c1`, the Activity stood at 26% in the data set with Rattus norvegicus, 32% in [1], 7% in [3] and 15% in data set [2].

With `COc1ccc(-c2noc(NC3CCCCC3)n2)cc1`, the Activity in data set [4] turned out to be 14%; in data set [5], 2%.

On to `COc1ccc2c(c1)c(CC(=O)O)c(C)n2C(=O)c1ccc(Cl)cc1` [INDOMETHACIN], for which the Activity in the data set with Rattus norvegicus turned out to be 47%.

As for `c1ccc(-c2noc(NC3CCCCC3)n2)cc1`, the Activity in the data set with Rattus norvegicus was 51%; in [4] it was 19%; in data set [1], 38%; in data set [6], 4%; in data set [5], 2%.

On to `CC(=O)N(c1nc(-c2ccc([N+](=O)[O-])cc2)no1)C1CCCCC1`, for which the Activity in [4] was determined as 8%; in [3] it was 3%; in data set [2], 4%; in [6] it was 12%; in [5] it was 8%; in data set [7], 47%.

In the case of `O=[N+]([O-])c1ccc(Cc2noc(NC3CCCCC3)n2)cc1`, the Activity in [3] and in data set [2] was 7% throughout.

As to `CN(C)CCCNc1nc(-c2ccc([N+](=O)[O-])cc2)no1`, the Activity turned out to be 67% in data set [1]; 6% in data set [3]; 4% in [2]; 7% in [6]; 24% in [7].

Consider `N/C(=N\O)c1ccccc1`, for which the Activity came to 8% in data set [8], 19% in data set [3] and 30% in data set [2].

On to `COc1ccc(C(=N)NO)cc1`, for which the Activity with Rattus norvegicus amounted to 45%; in [4] it was 4%; in data set [8], 35%; in [3], 57%; in data set [2] it was 57%; in [9], 44%. The figures for the Activity in [6] and in [5] were 4% and 5%, respectively.

As for `Clc1ccc(Cc2noc(NC3CCCCC3)n2)cc1`, the Activity in data set [3] and in [2] was 7% in each case.

As to `Cc1ccc(-c2noc(NC3CCCCC3)n2)cc1`, the Activity with Rattus norvegicus was 33%.

For `CC(=O)N(c1nc(-c2cccc([N+](=O)[O-])c2)no1)C1CCCCC1`, the Activity was 33% in [4]; 1% in data set [3]; 2% in data set [2]; 42.5% in data set [6]; 33% in [5]; 71% in data set [7].

For the compound `Cc1ccc(/C(N)=N/O)cc1`, the Activity with Rattus norvegicus was 41%; in data set [4] it was 8%; in [8], 15%; in [3] it was 21%; in data set [2], 26%; in data set [9], 14%.

For `NC(=NO)c1cccc([N+](=O)[O-])c1`, the Activity in [4] came to 4%.

As to `N/C(=N\O)c1ccc([N+](=O)[O-])cc1`, the results for the Activity in data set [1], in [3] and in data set [2] were 24%, 9% and 18%, respectively.

Take `NC(=NO)c1ccccc1` [BENZAMIDOXIME]: the Activity in [6] worked out at 2%; in [7], 6%.

On to `CCNc1nc(-c2ccc([N+](=O)[O-])cc2)no1`, for which, in data set [2], the Activity was determined as 9%.

Turning to `NC(Cc1ccc(Cl)cc1)=NO`, in data set [7], the Activity came out at 3%.

Consider `CC(Cc1ccc(O)c(O)c1)C(C)Cc1ccc(O)c(O)c1` (configuration not stated), for which the Activity in data set [1] is 83.7%; in data set [8], 77%; in [3], 84%; in data set [2], 91%; in data set [9] it was 81%.

For `CC(=O)N(c1nc(-c2cccc([N+](=O)[O-])c2)no1)C(C)C`, the Activity in [3] worked out at 3%; in data set [2] it was 4%; in data set [7] it was 55%.

Take `CC(C)Nc1nc(-c2cccc([N+](=O)[O-])c2)no1`: the Activity in data set [1] stood at 88%; in data set [3], 6%; in data set [2] it was 8%; in data set [7], 7%.

With `CC(=O)N(c1nc(Cc2ccc(Cl)cc2)no1)C1CCCCC1`, the Activity in data set [4] amounted to 12%; in data set [3], 2%; in data set [2], 5%; in data set [6] it was 27.5%; in [5], 18%; in data set [7], 39%.

For the compound `Cc1ccc(-c2noc(NC(C)C)n2)cc1`, the Activity in data set [2] worked out at 18%.

Turning to `CC(C)Nc1nc(Cc2ccc(Cl)cc2)no1`, the Activity in the data set with Rattus norvegicus came out at 43%; in data set [4], 2%; in [3], 8%; in [2], 11%; in data set [7] it was 4%.

`O=[N+]([O-])c1ccc(-c2noc(NC3CCCCC3)n2)cc1` had an Activity in data set [1] of more than 5%.

`CC(C)Nc1nc(C2CCCCC2)no1`: the Activity in data set [3] was 8%; in [2], 11%.

`CC(=O)N(c1nc(-c2ccc(C)cc2)no1)C1CCCCC1`: the Activity in data set [1] turned out to be 25.5%; in [3], 3%; in data set [2] it was 3%.

Regarding `Cc1ccc(-c2noc(NCCCN(C)C)n2)cc1`, the Activity in data set [3] was 6%; in [2] it was 8%; in data set [6], 7.5%; in data set [7] it was 21%.

In the case of `c1ccc(Cc2noc(NC3CCCCC3)n2)cc1`, the Activity in data set [3] was 9%; in data set [2], 9%; in data set [7], 7.5%.

Regarding `O=[N+]([O-])c1cccc(-c2noc(NC3CCCCC3)n2)c1`, the Activity is 40% in the data set with Rattus norvegicus; 3% in data set [4]; 74% in data set [1]; 11% in data set [3]; 11% in [2]; 3% in data set [7].
